Earlier results on two compounds are cited in patent US20060141030A1, “Method and composition for stable and controlled delivery of (-)-hydroxycitric acid” (priority 2003, published 2006).

Data set [1] relates to human hepatoma cell line Hep G2.
In a further data set the test system is experimental animals. The settings on record: single large oral dose or two divided oral doses totaling one fourth of it; high-sugar diet.
A further data set relates to test subjects. The settings on record: chronic administration; resting and exercising conditions.
For a further data set, the system named is middle-aged rats. Conditions: 30% fat diet.

Take `O=C(O)CC(O)(C(=O)O)C(O)C(=O)O` (single isomer, unassigned; (-)) [HCA, (−)-Hydroxycitric acid]: in data set [1] (Hep G2, HCA 0.5 mM or higher, 2.5 h and 18 h incubations), the “incorporation of [1,5-14C]citrate into fatty acids and cholesterol” value is recorded as “strongly inhibited”. Further, in data set [1] (Hep G2, incorporation from 3H2O), the “cholesterol biosynthesis, of the control value” is 27%. In the data set on experimental animals, the “reduction in food consumption” value is at least 10%. Besides, in the data set with test subjects, the respiratory exchange ratio entry is reported as “significantly lower”.

As for `O=C([O-])CC(O)(C(=O)[O-])C(O)C(=O)[O-].[K+].[K+].[K+]` (centres unmarked) [potassium HCA], the “protein and fat as percentage of body weight” value in the data set on middle-aged rats was “increased protein as a percentage of body weight while reducing fat as a percentage of body weight”.
